Experimental data: publication PMC5652740, “Inhibition of HIV-1 infection in humanized mice and metabolic stability of protein phosphatase-1-targeting small molecule 1E7-03” (Oncotarget, 2017)
Like-named read-outs stand apart in the source and are kept apart here.

Assays:
[1] = molecular target: T1, Recombinant PP1 (human PP1α residues 7–300) (Homo sapiens, UniProt P62136); test: Surface plasmon resonance direct binding to immobilized PP1; details: SPR
T1 construct: human PP1α (residues 7–300); His; made in house; host or cells: BL21 (DE3) Escherichia coli, co-expressed with GroEL/GroES chaperones
T1 sequence (P62136 7-300): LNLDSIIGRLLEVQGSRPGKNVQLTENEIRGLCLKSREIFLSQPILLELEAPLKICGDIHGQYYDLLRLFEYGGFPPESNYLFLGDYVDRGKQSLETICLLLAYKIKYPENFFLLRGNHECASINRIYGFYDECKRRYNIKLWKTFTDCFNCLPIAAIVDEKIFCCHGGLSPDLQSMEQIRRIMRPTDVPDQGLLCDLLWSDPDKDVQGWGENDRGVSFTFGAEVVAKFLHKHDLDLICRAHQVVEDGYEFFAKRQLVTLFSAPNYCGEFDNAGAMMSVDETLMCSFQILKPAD
Experimental: PP1 was purified as previously described. BL21 (DE3) Escherichia coli cells (Invitrogen, Carlsbad, CA, USA) were -transformed with a vector expressing human PP1α (residues 7–300) and pGR07, which expresses GroEL/[…] chaperones (both gifts from Dr Mathieu Bollen and Monique Beullens, KU Leuven, Belgium). The cells were grown in media supplemented with 1 mM MnCl2 at 30°C to an A600 =0.5. Arabinose (2 g per L) was added to induce expression of the GroEL/GroES chaperones. When A600 =1 was reached, the cells were transferred to 10°C and PP1 expression was induced with 0.1 mM Isopropyl β-D-1-thiogalactopyranoside for 20 hrs. Harvested cells were lysed using sonication in a solution containing in 50 mM Tris-HCl (pH 8.0), 5 mM imidazole, 700 mM NaCl, 1 mM MnCl2, 0.1% Triton X-100 (v/v) and protease inhibitors. His-tagged PP1 was purified using a Ni-NTA IMAC column (Qiagen, Valencia, CA, USA). Purified PP1 was dialyzed and stored at −70°C in 50 mM Tris-HCl (pH 8.0), 5 mM imidazole, 700 mM NaCl and 1 mM MnCl2. PP1 activity was then assayed as previously described.
The SPR measurements were conducted on Biacore T200 instrument (GE Healthcare, Piscataway, NJ) at 25°C. Recombinant PP1 was immobilized on a CM5 chip by amine coupling (GE Healthcare). PP1 (200 nM) was captured on flow cell 2 in 10 mM acetate buffer, pH 5.0, supplemented with 2 mM MnCl2. […] Flow cell 1 was used as a reference surface to subtract background signal. Also injections of the buffer alone were used to provide double reference subtraction. […] For binding and kinetics experiments, all compounds were diluted in the running buffer, at 40 μM, 20 μM, 10 μM, 5 μM, 2.5 μM, 1.25 μM and 0 μM and then passed over the two flow cells at a flow rate of 100 μl/min for 60 sec. The number of response units was recorded after the subtraction of the reference flow cell's value (Fc2-1). Two repetitions were performed for each injection. Data were analyzed using the BiaEvaluation software of Biacore with a 1:1 binding model. […] All the small molecular weight compounds were used at 1 μM.

[2] = molecular target: T2, PP1 (Homo sapiens, UniProt P62136); test: SPR competition with pRb-Tat peptide for binding to PP1; details: compounds at 1 μM; for fold reduction of the binding of pRb-Tat to PP1: pRb-Tat 10-100 nM
T2 construct: human PP1α (residues 7–300); His; made in house; host or cells: BL21 (DE3) Escherichia coli, co-expressed with GroEL/GroES chaperones
T2 sequence (P62136 7-300): as above
Experimental: The SPR measurements were conducted on Biacore T200 instrument (GE Healthcare, Piscataway, NJ) at 25°C. Recombinant PP1 was immobilized on a CM5 chip by amine coupling (GE Healthcare). PP1 (200 nM) was captured on flow cell 2 in 10 mM acetate buffer, pH 5.0, supplemented with 2 mM MnCl2. The average amount of PP1 immobilized on the surface was 3160 RU. Flow cell 1 was used as a reference surface to subtract background signal. Also injections of the buffer alone were used to provide double reference subtraction. To measure the direct binding of small molecules to PP1, the two flow cells of the sensor chip were primed with running buffer (0.01 M HEPES pH 7.4, 0.15 M NaCl, 0.005% v/v Surfactant P20, 1% DMSO and 2 mM MnCl2). For binding and kinetics experiments, all compounds were diluted in the running buffer, at 40 μM, 20 μM, 10 μM, 5 μM, 2.5 μM, 1.25 μM and 0 μM and then passed over the two flow cells at a flow rate of 100 μl/min for 60 sec. The number of response units was recorded after the subtraction of the reference flow cell's value (Fc2-1). Two repetitions were performed for each injection. Data were analyzed using the BiaEvaluation software of Biacore with a 1:1 binding model. […] All the small molecular weight compounds were used at 1 μM.

[3] = test system: HIV-1 env and gag mRNA; test: HIV-1 env and gag mRNA expression by real-time RT-PCR in infected CEM T cells; format: cell-based; details: 10 μM 1E7-03, DP1, DP3; 5 μM AZT, 3TC; in words
Experimental: For quantitative analysis of HIV-1 RNA, CEM T cells were infected with HIV-1-LUC-G virus. Cells were treated with 10 μM 1E7-03, 10 μM DP1, 10 μM DP3, 5 μM AZT or 5 μM 3TC and control cells were untreated or treated with DMSO. Total RNA was isolated using Trizol Reagent (Invitrogen, Carlsbad, CA) according to the manufacturer's protocol. Total RNA (100 ng) was reverse transcribed to cDNA using Superscript™ RT-PCR kit (Invitrogen, Carlsbad, CA). Hexamers and oligo-dT were used as primers. For real-time PCR analysis, cDNA was amplified using Roche LightCycler 480 (Roche Diagnostics) and SYBR Green1 Master mix (Roche Diagnostics). PCR was run for 45 cycles and each cycle included denaturation at 95°C for 10 seconds, annealing at 60°C for 10 seconds, and extension at 72°C for 10 seconds. Quantification of env and gag was carried using 18S RNA as a normalization standard. Quantification of housekeeping genes, β-actin and RSP13 was carried relative to 18S RNA. Mean Cp values were determined and ΔΔCt method was used to calculate relative expression levels. Unpaired t-test was used to test statistical significance.
The following primer sequences were used: env, forward - […], reverse-[…]; gag, forward- […], reverse- […]; β-actin, forward- […], reverse-[…]; RSP13, forward- […], reverse- […]; and 18SrRNA, forward- […], reverse- […].

[4] = 1:1 binding model, 25°C, read-out: PP1 WT KD
[5] = as quoted in the discussion, read-out: KD

Structure (SMILES)	Kd [1, 4] [µM]	Kd [1, 5] [µM]	competition with pRb-Tat for binding to PP1 ([2]; in words)	fold reduction of the binding of pRb-Tat to PP1 [2]	HIV-1 env mRNA expression [3]	HIV-1 gag mRNA expression [3]
COc1ccc(/C=C2\CCc3c2nc2ccccc2c3C(=O)OC(C)C(=O)O)cc1OC (stereo not shown) [DP1]	3.75	~4	best competitor	10 fold	not affected	not affected
COc1ccc(/C=C2\CCc3c2nc2ccccc2c3C(=O)O)cc1OC [DP3]	4.88	~4		2-2.5 fold	not affected	not affected
CCNC(=O)NC(=O)C(C)OC(=O)c1c2c(nc3ccccc13)/C(=C/c1ccc(OC)c(OC)c1)CC2 (stereo not shown) [1E7-03]	6.16	6.2		2-2.5 fold	significantly reduced	significantly reduced
